Data reported in patent publication US6914045B2, “Glycopeptide antibiotics” (Wyeth Holdings Corporation, priority 2001, dated 2005).
Converted amounts (≈) assume the structure as drawn.

Assays:
Assay in all cases: in vitro antibacterial evaluation, MIC by broth dilution
Type in all cases: cell-based
Enterococcus sp. = conditions: broth dilution, 18 hours at 35° C.
Procedure, shortened: (§1)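 Step 1: dilute antibiotic across 64-0.06 μg/mL in Muller-Hinton II […]. Step 2: inoculate at 5×10^5 CFU/mL.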

Escherichia coli = conditions: 18 hours at 35° C.
Procedure, shortened: as §1

Staphylococcus sp. = conditions: broth dilution, 18 hours at 35° C.
Procedure, shortened: as §1

Streptococcus sp. = conditions: broth dilution, 18 hours at 35° C.
Procedure, shortened: as §1

MIC Enterococcus avium (GC 4558) (Enterococcus sp.; Enterococcus avium (GC 4558)): 0.25 µg/mL (≈ 0.177 µM)
MIC Enterococcus faecalis (ATCC 29212) (Enterococcus sp.; Enterococcus faecalis (ATCC 29212)): 4 µg/mL (≈ 2.83 µM)
MIC Enterococcus faecalis (GC 2242) (Enterococcus sp.; Enterococcus faecalis (GC 2242)): 4 µg/mL (≈ 2.83 µM)
MIC Enterococcus faecalis (GC 2691) (Enterococcus sp.; Enterococcus faecalis (GC 2691)): 4 µg/mL (≈ 2.83 µM)
MIC Enterococcus faecalis (GC 3059) (Enterococcus sp.; Enterococcus faecalis (GC 3059)): 4 µg/mL (≈ 2.83 µM)
MIC Enterococcus faecalis (GC 4552) (Enterococcus sp.; Enterococcus faecalis (GC 4552)): 4 µg/mL (≈ 2.83 µM)
MIC Enterococcus faecalis (GC 4553) (Enterococcus sp.; Enterococcus faecalis (GC 4553)): 4 µg/mL (≈ 2.83 µM)
MIC Enterococcus faecalis (GC 4554) (Enterococcus sp.; Enterococcus faecalis (GC 4554)): 4 µg/mL (≈ 2.83 µM)
MIC Enterococcus faecalis (GC 6189) (Enterococcus sp.; Enterococcus faecalis (GC 6189)): 4 µg/mL (≈ 2.83 µM)
MIC Enterococcus faecium (GC 2243) (Enterococcus sp.; Enterococcus faecium (GC 2243)): 4 µg/mL (≈ 2.83 µM)
MIC Enterococcus faecium (GC 4556) (Enterococcus sp.; Enterococcus faecium (GC 4556)): 4 µg/mL (≈ 2.83 µM)
MIC Enterococcus faecium (GC 4557) (Enterococcus sp.; Enterococcus faecium (GC 4557)): 1 µg/mL (≈ 0.708 µM)
MIC Enterococcus faecalis (ATCC 29212) (Enterococcus sp.; strain ATCC 29212): 4 µg/mL (≈ 2.83 µM)
MIC Enterococcus faecalis (GC 2242) (Enterococcus sp.; strain GC 2242): 4 µg/mL (≈ 2.83 µM)
MIC Enterococcus faecium (GC 2243) (Enterococcus sp.; strain GC 2243): 4 µg/mL (≈ 2.83 µM)
MIC Enterococcus faecalis (GC 2691) (Enterococcus sp.; strain GC 2691): 4 µg/mL (≈ 2.83 µM)
MIC Enterococcus faecalis (GC 3059) (Enterococcus sp.; strain GC 3059): 4 µg/mL (≈ 2.83 µM)
MIC Enterococcus faecalis (GC 4552) (Enterococcus sp.; strain GC 4552): 4 µg/mL (≈ 2.83 µM)
MIC Enterococcus faecalis (GC 4553) (Enterococcus sp.; strain GC 4553): 4 µg/mL (≈ 2.83 µM)
MIC Enterococcus faecalis (GC 4554) (Enterococcus sp.; strain GC 4554): 4 µg/mL (≈ 2.83 µM)
MIC Enterococcus faecium (GC 4556) (Enterococcus sp.; strain GC 4556): 4 µg/mL (≈ 2.83 µM)
MIC Enterococcus faecium (GC 4557) (Enterococcus sp.; strain GC 4557): 1 µg/mL (≈ 0.708 µM)
MIC Enterococcus avium (GC 4558) (Enterococcus sp.; strain GC 4558): 0.25 µg/mL (≈ 0.177 µM)
MIC Enterococcus faecalis (GC 6189) (Enterococcus sp.; strain GC 6189): 4 µg/mL (≈ 2.83 µM)
MIC Escherichia coli (ATCC 25922) (Escherichia coli; strain ATCC 25922): 32 µg/mL (≈ 22.7 µM)
MIC Escherichia coli (GC 4559) (Escherichia coli; strain GC 4559): 32 µg/mL (≈ 22.7 µM)
MIC Escherichia coli (GC 4560) (Escherichia coli; strain GC 4560): 1 µg/mL (≈ 0.708 µM)
MIC Staphylococcus aureus (ATCC 29213) (Staphylococcus sp.): 2 µg/mL (≈ 1.42 µM)
MIC Staphylococcus aureus (GC 1131) (Staphylococcus sp.): 2 µg/mL (≈ 1.42 µM)
MIC Staphylococcus aureus (GC 3051) (Staphylococcus sp.): 2 µg/mL (≈ 1.42 µM)
MIC Staphylococcus aureus (GC 3053) (Staphylococcus sp.): 2 µg/mL (≈ 1.42 µM)
MIC Staphylococcus aureus (GC 4541) (Staphylococcus sp.): 2 µg/mL (≈ 1.42 µM)
MIC Staphylococcus aureus (GC 4542) (Staphylococcus sp.): 1 µg/mL (≈ 0.708 µM)
MIC Staphylococcus aureus (GC 4544) (Staphylococcus sp.): 2 µg/mL (≈ 1.42 µM)
MIC Staphylococcus aureus (GC 4545) (Staphylococcus sp.): 2 µg/mL (≈ 1.42 µM)
MIC Staphylococcus aureus (GC 1131) (Staphylococcus sp.; inoculum 5×10^5 CFU/mL, strain GC 1131): 2 µg/mL (≈ 1.42 µM)
MIC Staphylococcus aureus (ATCC 29213) (Staphylococcus sp.; strain ATCC 29213): 2 µg/mL (≈ 1.42 µM)
MIC Staphylococcus aureus (GC 3051) (Staphylococcus sp.; strain GC 3051): 2 µg/mL (≈ 1.42 µM)
MIC Staphylococcus aureus (GC 3053) (Staphylococcus sp.; strain GC 3053): 2 µg/mL (≈ 1.42 µM)
MIC Staphylococcus aureus (GC 4541) (Staphylococcus sp.; strain GC 4541): 2 µg/mL (≈ 1.42 µM)
MIC Staphylococcus aureus (GC 4542) (Staphylococcus sp.; strain GC 4542): 1 µg/mL (≈ 0.708 µM)
MIC Staphylococcus aureus-SMITH (GC 4543) (Staphylococcus sp.; strain GC 4543): 2 µg/mL (≈ 1.42 µM)
MIC Staphylococcus aureus (GC 4544) (Staphylococcus sp.; strain GC 4544): 2 µg/mL (≈ 1.42 µM)
MIC Staphylococcus aureus (GC 4545) (Staphylococcus sp.; strain GC 4545): 2 µg/mL (≈ 1.42 µM)
MIC Coagulase Negative Staphylococcus (GC 4547) (Staphylococcus sp.; strain GC 4547): 2 µg/mL (≈ 1.42 µM)
MIC Coagulase Negative Staphylococcus (GC 4548) (Staphylococcus sp.; strain GC 4548): 1 µg/mL (≈ 0.708 µM)
MIC Coagulase Negative Staphylococcus (GC 4549) (Staphylococcus sp.; strain GC 4549): 1 µg/mL (≈ 0.708 µM)
MIC Coagulase Negative Staphylococcus (GC 4551) (Staphylococcus sp.; strain GC 4551): 2 µg/mL (≈ 1.42 µM)
MIC Coagulase Negative Staphylococcus (GC 6257) (Staphylococcus sp.; strain GC 6257): 1 µg/mL (≈ 0.708 µM)
MIC Staphylococcus aureus-SMITH (GC 4543) (Staphylococcus sp.; strain SMITH GC 4543): 2 µg/mL (≈ 1.42 µM)
MIC Streptococcus agalactiae (GC 4564) (Streptococcus sp.; Streptococcus agalactiae (GC 4564)): 1 µg/mL (≈ 0.708 µM)
MIC Streptococcus pneumoniae (ATCC 6301) (Streptococcus sp.; Streptococcus pneumoniae (ATCC 6301)): <0.06 µg/mL
MIC Streptococcus pneumoniae (GC 1894) (Streptococcus sp.; Streptococcus pneumoniae (GC 1894)): <0.06 µg/mL
MIC Streptococcus pneumoniae (GC 4565) (Streptococcus sp.; Streptococcus pneumoniae (GC 4565)): <0.06 µg/mL
MIC Streptococcus pyogenes (GC 4563) (Streptococcus sp.; Streptococcus pyogenes (GC 4563)): 0.12 µg/mL (≈ 0.085 µM)
MIC Streptococcus pneumoniae (ATCC 6301) (Streptococcus sp.; strain ATCC 6301): <0.06 µg/mL
MIC Streptococcus pneumoniae (GC 1894) (Streptococcus sp.; strain GC 1894): <0.06 µg/mL
MIC Streptococcus pyogenes (GC 4563) (Streptococcus sp.; strain GC 4563): 0.12 µg/mL (≈ 0.085 µM)
MIC Streptococcus agalactiae (GC 4564) (Streptococcus sp.; strain GC 4564): 1 µg/mL (≈ 0.708 µM)
MIC Streptococcus pneumoniae (GC 4565) (Streptococcus sp.; strain GC 4565): <0.06 µg/mL
Structure (SMILES): CC(c1ccccc1)C1NC(=O)CNC(=O)C(CO)NC(=O)C(C(O)C2CNC(=N)N2C2OC(CO)C(O)C(O)C2O)NC(=O)C(C(O)C2CNC(=N)N2)NC(=O)C(Cc2ccc(OC3OC(CO)C(OC4OC5COC(CCc6ccccc6)OC5C(O)C4O)C(O)C3O)cc2)NC1=O (stereo not shown) [Example 124]
MIC Staphylococcus haemolyticus (GC 4546) (Staphylococcus sp.; strain GC 4546): 2 µg/mL (≈ 1.42 µM)
